Experimental data taken from patent publication US20090012085A1, “DOSAGE FORMS AND METHODS OF TREATMENT USING A TYROSINE KINASE INHIBITOR” (priority 2005, published 2009).
Read-outs that look alike come from different tables or passages of the source.

Assay: Phase I dose-escalating study, plasma pharmacokinetics in patients with solid tumor
Format: in vivo, human
Conditions: for concentration at 6 h / concentration at 8 h / concentration at 10 h / concentration at 0 h / concentration at 1 h / concentration at 2 h / concentration at 3 h / concentration at 4 h / concentration at 20 h / concentration at 24 h / concentration at 48 h / concentration at 72 h / concentration at 96 h / concentration at 144 h / AUC(0-t) / Cmax / Tmax / half-life: human, plasma; for concentration at 6 h: nominal time 6 h; for concentration at 8 h: nominal time 8 h; for concentration at 10 h: nominal time 10 h; for concentration at 0 h: nominal time 0 h; for concentration at 1 h: nominal time 1 h; for concentration at 2 h: nominal time 2 h; for concentration at 3 h: nominal time 3 h; for concentration at 4 h: nominal time 4 h; for concentration at 20 h: nominal time 20 h; for concentration at 48 h: nominal time 48 h; for concentration at 72 h: nominal time 72 h; for concentration at 96 h: nominal time 96 h; for concentration at 144 h: nominal time 144 h; for AUC(0-t): read-out: AUC(0-24), mean (% CV); for Cmax: read-out: Cmax, mean (% CV); for Tmax: read-out: tmax, mean (% CV); for half-life: read-out: t½, mean (% CV) (converted)
Experimental: Cmax values, or maximum total plasma concentrations, of a compound of formula 1 can be measured according to techniques well known to those skilled in the art. For example, after a compound of formula 1 has been administered to a mammal, blood samples can be taken at fixed time points over a period of time (e.g. 24 hours) and the serum or plasma concentration of compound of formula 1 can be measured using standard analytical techniques known in the art. In vivo determinations Cmax can then be made by plotting the serum or plasma concentration of compound of formula 1 along the ordinate (y-axis) against time along the abscissa (x-axis).
The maleate salt of compound 1 was administered to human patients with solid tumor malignancies not amenable to conventional therapies in a Phase I dose-escalating multicenter study. The types of tumor malignancies included colorectal carcinoma, renal cell carcinoma, esophageal carcinoma, thymus carcinoma, mastocytosis, lung cancer and multiple endocrine neoplasia type II. Patients were treated in cohorts of 6 with escalating QD (once per day) doses of the maleate salt of compound 1 under fasting conditions. Each study cycle of 5 weeks consisted of 4 weeks of treatment followed by 1 week of rest (4/1 schedule), or continuous dosing without any rest period.
Full pharmacokinetic profiles were collected on Cycle 1 Day 1 (C1D1), Cycle 1 Day 28 (C1D28), and Cycle 2 Day 28 (C2D28). Preliminary pharmacokinetic parameters for the first 44 patients, i.e. the first 7 dosing groups, were estimated using nominal collection times and quality-controlled, non-quality assured bioanalytical data. The dosage amounts in Table 1A and Table 1B are free base equivalent amounts.

[1] = 25 mg QD, 25 mg QD 4/1 (n = 6), read-out: Mean plasma concentration following the last dose on cycle 1 day 28
[2] = 25 mg, 25 mg QD 4/1 (n = 6), read-out: Mean plasma concentration following the last dose on cycle 1 day 28
[3] = 25 mg, 25 mg QD (4/1), C1D1 (n = 6)
[4] = 25 mg, 25 mg QD (4/1), C1D28 (n = 6)
[5] = 25 mg, 25 mg QD (4/1), C2D28 (n = 5)
[6] = 50 mg QD, 50 mg QD 4/1 (n = 5), read-out: Mean plasma concentration following the last dose on cycle 1 day 28
[7] = 50 mg, 50 mg QD 4/1 (n = 5), read-out: Mean plasma concentration following the last dose on cycle 1 day 28
[8] = 50 mg, 50 mg QD (4/1), C1D1 (n = 6)
[9] = 50 mg, 50 mg QD (4/1), C1D28 (n = 5)
[10] = 50 mg, 50 mg QD (4/1), C2D28 (n = 3)
[11] = 100 mg QD, 100 mg QD 4/1 (n = 6), read-out: Mean plasma concentration following the last dose on cycle 1 day 28
[12] = 100 mg QD, 100 mg QD Continuous (n = 4), read-out: Mean plasma concentration following the last dose on cycle 1 day 28
[13] = 100 mg, 100 mg QD 4/1 (n = 6), read-out: Mean plasma concentration following the last dose on cycle 1 day 28
[14] = 100 mg, 100 mg QD (4/1), C1D1 (n = 7)
[15] = 100 mg, 100 mg QD (4/1), C1D28 (n = 6)
[16] = 100 mg, 100 mg QD (4/1), C2D28 (n = 4)
[17] = 100 mg, 100 mg QD (continuous), C1D1 (n = 6)
[18] = 100 mg, 100 mg QD (continuous), C1D28 (n = 6)
[19] = 100 mg, 100 mg QD (continuous), C2D28 (n = 4)
[20] = 100 mg, 100 mg QD Continuous (n = 4), read-out: Mean plasma concentration following the last dose on cycle 1 day 28

Compound: Cc1[nH]c(/C=C2\C(=O)Nc3ccc(F)cc32)c(C)c1C(=O)NC[C@H](O)CN1CCOCC1 [compound 1, 5-[(Z)-(5-fluoro-2-oxo-1,2-dihydro-3H-indol-3-ylidene)methyl]-N-[(2S)-2-hydroxy-3-morpholin-4-ylpropyl]-2,4-dimethyl-1H-pyrrole-3-carboxamide]
- drug accumulation in plasma from cycle 1 to cycle 2 (100 mg QD continuous, Cmax and AUC0-24 of C1D28 vs C2D28): no drug accumulation
- time of the longer elimination phase after dosing (4/1 schedule, after the last dose on Day 28): about 72 hours
- change in the overall plasma elimination profile (across the 25- to 250-mg groups): no change
- time of absorption after dosing (administered in the fasted state): ≤ 6 h
- dose linearity of pharmacokinetics (first 44 patients, 25 to 250 mg): generally dose-linear pharmacokinetics
- concentration at 6 h [1]: 50.3 ng/mL
- concentration at 8 h [1]: 41.3 ng/mL
- concentration at 10 h [1]: 36.8 ng/mL
- concentration at 0 h [2]: 22.2 ng/mL
- concentration at 1 h [2]: 50.1 ng/mL
- concentration at 2 h [2]: 46.7 ng/mL
- concentration at 3 h [2]: 47 ng/mL
- concentration at 4 h [2]: 58.3 ng/mL
- concentration at 20 h [2]: 19.5 ng/mL
- concentration at 24 h (25 mg, 25 mg QD 4/1 (n = 6), nominal time 24 h, read-out: Mean plasma concentration following the last dose on cycle 1 day 28): 21.1 ng/mL
- concentration at 48 h [2]: 6.24 ng/mL
- concentration at 72 h [2]: 2.61 ng/mL
- concentration at 96 h [2]: 1.58 ng/mL
- concentration at 144 h [2]: 0.63 ng/mL
- AUC(0-t) [3]: 547 ng·h/mL
- concentration at 24 h (25 mg, 25 mg QD (4/1), C1D1 (n = 6), read-out: C(trough, 24 h), mean (% CV)): 13.8 ng/mL
- Cmax [3]: 55.1 ng/mL
- Tmax [3]: 2.8 h
- half-life [3]: 11.9 h
- AUC(0-t) [4]: 809 ng·h/mL
- concentration at 24 h (25 mg, 25 mg QD (4/1), C1D28 (n = 6), read-out: C(trough, 24 h), mean (% CV)): 21.1 ng/mL
- Cmax [4]: 72.9 ng/mL
- Tmax [4]: 2.7 h
- half-life [4]: 24.8 h
- Cmax [5]: 61.8 ng/mL
- Tmax [5]: 3.2 h
- half-life [5]: 17.7 h
- concentration at 3 h [6]: 85.6 ng/mL
- concentration at 6 h [6]: 71.3 ng/mL
- concentration at 8 h [6]: 68.6 ng/mL
- concentration at 10 h [6]: 59.4 ng/mL
- concentration at 0 h [7]: 37.2 ng/mL
- concentration at 1 h [7]: 72.3 ng/mL
- concentration at 2 h [7]: 84.5 ng/mL
- concentration at 4 h [7]: 81.1 ng/mL
- concentration at 20 h [7]: 30.5 ng/mL
- concentration at 24 h (50 mg, 50 mg QD 4/1 (n = 5), nominal time 24 h, read-out: Mean plasma concentration following the last dose on cycle 1 day 28): 24.3 ng/mL
- concentration at 48 h [7]: 25.4 ng/mL
- concentration at 72 h [7]: 7.89 ng/mL
- concentration at 96 h [7]: 17 ng/mL
- concentration at 144 h [7]: 3.27 ng/mL
- AUC(0-t) [8]: 888 ng·h/mL
- concentration at 24 h (50 mg, 50 mg QD (4/1), C1D1 (n = 6), read-out: C(trough, 24 h), mean (% CV)): 20.8 ng/mL
- Cmax [8]: 84.6 ng/mL
- Tmax [8]: 2.8 h
- half-life [8]: 10.8 h
- AUC(0-t) [9]: 1350 ng·h/mL
- concentration at 24 h (50 mg, 50 mg QD (4/1), C1D28 (n = 5), read-out: C(trough, 24 h), mean (% CV)): 50.8 ng/mL
- Cmax [9]: 126 ng/mL
- Tmax [9]: 6.6 h
- half-life [9]: 24 h
- AUC(0-t) [10]: 1790 ng·h/mL
- concentration at 24 h (50 mg, 50 mg QD (4/1), C2D28 (n = 3), read-out: C(trough, 24 h), mean (% CV)): 44.2 ng/mL
- Cmax [10]: 173 ng/mL
- Tmax [10]: 3.3 h
- half-life [10]: 18.9 h
- concentration at 3 h [11]: 337 ng/mL
- concentration at 4 h [11]: 344 ng/mL
- concentration at 6 h [11]: 312 ng/mL
- concentration at 8 h [11]: 261 ng/mL
- concentration at 10 h [11]: 208 ng/mL
- concentration at 3 h [12]: 460 ng/mL
- concentration at 4 h [12]: 560 ng/mL
- concentration at 6 h [12]: 707 ng/mL
- concentration at 8 h [12]: 395 ng/mL
- concentration at 10 h [12]: 566 ng/mL
- concentration at 0 h [13]: 121 ng/mL
- concentration at 1 h [13]: 218 ng/mL
- concentration at 2 h [13]: 326 ng/mL
- concentration at 20 h [13]: 311 ng/mL
- concentration at 24 h (100 mg, 100 mg QD 4/1 (n = 6), nominal time 24 h, read-out: Mean plasma concentration following the last dose on cycle 1 day 28): 111 ng/mL
- concentration at 48 h [13]: 60.8 ng/mL
- concentration at 72 h [13]: 16.1 ng/mL
- concentration at 96 h [13]: 9.96 ng/mL
- concentration at 144 h [13]: 2.94 ng/mL
- AUC(0-t) [14]: 2480 ng·h/mL
- concentration at 24 h (100 mg, 100 mg QD (4/1), C1D1 (n = 7), read-out: C(trough, 24 h), mean (% CV)): 86.8 ng/mL
- Cmax [14]: 270 ng/mL
- Tmax [14]: 2.6 h
- half-life [14]: 12.5 h
- AUC(0-t) [15]: 6050 ng·h/mL
- concentration at 24 h (100 mg, 100 mg QD (4/1), C1D28 (n = 6), read-out: C(trough, 24 h), mean (% CV)): 111 ng/mL
- Cmax [15]: 413 ng/mL
- Tmax [15]: 2.7 h
- half-life [15]: 22 h
- AUC(0-t) [16]: 2800 ng·h/mL
- concentration at 24 h (100 mg, 100 mg QD (4/1), C2D28 (n = 4), read-out: C(trough, 24 h), mean (% CV)): 156 ng/mL
- Cmax [16]: 181 ng/mL
- Tmax [16]: 13.5 h
- half-life [16]: 23 h
- AUC(0-t) [17]: 1800 ng·h/mL
- concentration at 24 h (100 mg, 100 mg QD (continuous), C1D1 (n = 6), read-out: C(trough, 24 h), mean (% CV)): 34.1 ng/mL
- Cmax [17]: 171 ng/mL
- Tmax [17]: 4.3 h
- half-life [17]: 12.9 h
- AUC(0-t) [18]: 2990 ng·h/mL
- concentration at 24 h (100 mg, 100 mg QD (continuous), C1D28 (n = 6), read-out: C(trough, 24 h), mean (% CV)): 63 ng/mL
- Cmax [18]: 255 ng/mL
- Tmax [18]: 3.3 h
- half-life [18]: 11.4 h
- AUC(0-t) [19]: 3230 ng·h/mL
- concentration at 24 h (100 mg, 100 mg QD (continuous), C2D28 (n = 4), read-out: C(trough, 24 h), mean (% CV)): 62.8 ng/mL
- Cmax [19]: 250 ng/mL
- Tmax [19]: 3.7 h
- half-life [19]: 13.8 h
- concentration at 0 h [20]: 284 ng/mL
- concentration at 1 h [20]: 232 ng/mL
- concentration at 2 h [20]: 524 ng/mL
- concentration at 20 h [20]: 265 ng/mL
- concentration at 24 h (100 mg, 100 mg QD Continuous (n = 4), nominal time 24 h, read-out: Mean plasma concentration following the last dose on cycle 1 day 28): 246 ng/mL
